We go through 14 molecules from US11965039B2, “Compstatin analogues and their medical uses” (priority 2018, dated 2024).

The assay deals with classical complement pathway. Description: In vitro haemolysis assay (inhibition of classical complement pathway). The class given is cell-based, human. The procedure, abridged: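 Compound dilutions preincubated 15 min at room temperature with diluted human serum (titrated per batch for 70-90% maximal haemolysis), then antibody-sensitized sheep RBC (10^7/well) added for 30 min at 37 °C in Tris/casein buffer, pH 7.4. Stopped with EDTA; haemolysis read at 405 nm; IC50 by 4PL fit.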

Setting [1] is: human serum, sensitized sheep red blood cells, Table 3, given as upper bounds, read-out: IC50, inhibition of hemolysis.
[2] abbreviates: human serum, sensitized sheep red blood cells, Table 4, valine 3 vs isoleucine 3 pairs, read-out: CP hemolysis IC50.

Read-outs that look alike come from different tables or passages of the source. Starred links: 1 amine or outer side, 2 acyl side, 3 side chain; linkers in the order of their positions; H or OH if unused. Positions of bridges follow the written chain, without caps; N, C: chain ends. Non-standard residues stand in square brackets, D forms with d. Residues, ends and D or L forms follow the SMILES beside them. Groups on a side chain read outwards from the residue. *: point of attachment. Trp(1-Me) = Cn1cc(C[C@H](N)C(=O)O)c2ccccc21; C18 diacid = O=C(O)CCCCCCCCCCCCCCCCC(=O)*; C16 diacid = O=C(O)CCCCCCCCCCCCCCC(=O)*; γGlu = O=C(O)[C@H](CCC(=O)[*:2])N[*:1]; AEEA = NCCOCCOCC(=O)O; Sar = CNCC(=O)O

The IC50 is the concentration at which inhibition is half-maximal. In the case of `CC[C@H](C)[C@H](NC(C)=O)C(=O)N[C@H]1CSSC[C@@H](C(=O)N[C@H](C(N)=O)[C@@H](C)O)NC(=O)[C@H](CCCNC(=N)N)NC(=O)[C@H](Cc2c[nH]cn2)NC(=O)[C@H](CCC(=O)O)NC(=O)CNC(=O)[C@H](Cc2c[nH]c3ccccc23)NC(=O)[C@H](CC(=O)O)NC(=O)[C@H](CCC(N)=O)NC(=O)[C@H](Cc2c[nH]c3ccccc23)NC(=O)[C@H]([C@@H](C)CC)NC1=O` [Compound 2] (Ac-ICIWQDWGEHRCT-NH2; disulfide 2-12), the IC50 (Table 5, different residues at position 3 of Ac-IC(1)XWQDWGEHRC(1)T-NH2, read-out: IC50, CP hemolysis) is less than 100 nM; the IC50 under setting [1] was less than 100 nM; the IC50 under setting [2] came out at 94 nM.
As to `CC[C@H](C)[C@H](NC(C)=O)C(=O)N[C@H]1CSSC[C@@H](C(=O)N[C@H](C(=O)NCC(=O)N[C@@H](C)C(=O)N[C@@H](CCC(=O)O)C(=O)N[C@@H](CO)C(N)=O)[C@@H](C)O)NC(=O)[C@H](CCCNC(=N)N)NC(=O)[C@H](Cc2c[nH]cn2)NC(=O)[C@H](CCC(=O)O)NC(=O)CNC(=O)[C@H](Cc2c[nH]c3ccccc23)NC(=O)[C@H](CC(=O)O)NC(=O)[C@H](CCC(N)=O)NC(=O)[C@H](Cc2c[nH]c3ccccc23)NC(=O)[C@H](C(C)C)NC1=O` [D, reference compound] (Ac-ICVWQDWGEHRCTGAES-NH2; disulfide 2-12), the IC50 under setting [2] was found to be 210 nM.
For the molecule `CC[C@H](C)[C@H](NC(C)=O)C(=O)N[C@H]1CSSC[C@@H](C(=O)N[C@H](C(N)=O)[C@@H](C)O)NC(=O)[C@H](CO)NC(=O)[C@H](Cc2c[nH]cn2)NC(=O)[C@H](C)NC(=O)CNC(=O)[C@H](Cc2c[nH]c3ccccc23)NC(=O)[C@H](CC(=O)O)NC(=O)[C@H](CCC(N)=O)NC(=O)[C@H](Cc2c[nH]c3ccccc23)NC(=O)[C@H]([C@@H](C)CC)NC1=O` [Compound 19] (Ac-ICIWQDWGAHSCT-NH2; disulfide 2-12), the IC50 is, setting by setting: under setting [1], less than 250 nM; under setting [2], 140 nM.
`CC[C@H](C)[C@@H]1NC(=O)[C@@H](NC(=O)[C@H](Cc2ccccc2)NC(=O)[C@H](CCC(=O)O)NC(=O)[C@H](CO)NC(C)=O)CSSC[C@@H](C(=O)N(C)CC(=O)N[C@@H](CCC(=O)O)C(=O)NCC(=O)N[C@@H](CCC(=O)O)C(=O)NCCOCCOCC(=O)NCCOCCOCC(=O)N[C@@H](CCCCNC(=O)CC[C@H](NC(=O)CNC(=O)CC[C@H](NC(=O)CCCCCCCCCCCCCCCCC(=O)O)C(=O)O)C(=O)O)C(N)=O)NC(=O)[C@H](CCCNC(=N)N)NC(=O)[C@H](Cc2c[nH]cn2)NC(=O)[C@H](CCC(=O)O)NC(=O)CNC(=O)[C@H](Cc2c[nH]c3ccccc23)NC(=O)[C@H](CCC(=O)O)NC(=O)[C@H](CCC(N)=O)NC(=O)[C@H](Cc2cn(C)c3ccccc23)NC1=O` [Compound 124] (Ac-SEFCI[Trp(1-Me)]QEWGEHRC[Sar]EGE[AEEA][AEEA]K([γGlu-Gly-γGlu-C18 diacid])-NH2; disulfide 4-14): the IC50 under setting [1] is less than 100 nM.
As to `CC[C@H](C)[C@H](NC(=O)[C@H](C)NC(=O)[C@H](CO)NC(=O)CNC(=O)[C@H](CCC(=O)O)NC(C)=O)C(=O)N[C@H]1CSSC[C@@H](C(=O)N[C@H](C(N)=O)[C@@H](C)O)NC(=O)[C@H](CCCNC(=N)N)NC(=O)[C@H](Cc2c[nH]cn2)NC(=O)[C@H](CCC(=O)O)NC(=O)CNC(=O)[C@H](Cc2c[nH]c3ccccc23)NC(=O)[C@H](CC(=O)O)NC(=O)[C@H](CCC(N)=O)NC(=O)[C@H](Cc2c[nH]c3ccccc23)NC(=O)[C@H]([C@@H](C)CC)NC1=O` [Compound 29] (Ac-EGSAICIWQDWGEHRCT-NH2; disulfide 6-16), under setting [1], the IC50 is less than 100 nM.
Consider `CC[C@H](C)[C@@H]1NC(=O)[C@@H](NC(=O)[C@H](Cc2ccccc2)NC(C)=O)CSSC[C@@H](C(=O)N[C@H](C(=O)NCC(=O)N[C@@H](C)C(=O)N[C@@H](CCC(=O)O)C(N)=O)[C@@H](C)O)NC(=O)[C@H](CCCNC(=N)N)NC(=O)[C@H](Cc2c[nH]cn2)NC(=O)[C@H](CCC(=O)O)NC(=O)CNC(=O)[C@H](Cc2c[nH]c3ccccc23)NC(=O)[C@H](CC(=O)O)NC(=O)[C@H](CCC(N)=O)NC(=O)[C@H](Cc2c[nH]c3ccccc23)NC1=O` [Compound 43] (Ac-FCIWQDWGEHRCTGAE-NH2; disulfide 2-12), for which, under setting [1], the IC50 is less than 100 nM.
With `CC[C@H](C)[C@@H]1NC(=O)[C@@H](NC(=O)[C@H](Cc2ccccc2)NC(C)=O)CSSC[C@@H](C(=O)N[C@H](C(N)=O)[C@@H](C)O)NC(=O)[C@H](CCCNC(=N)N)NC(=O)[C@H](Cc2c[nH]cn2)NC(=O)[C@H](CCC(=O)O)NC(=O)CNC(=O)[C@H](Cc2c[nH]c3ccccc23)NC(=O)[C@H](CC(=O)O)NC(=O)[C@H](CCC(N)=O)NC(=O)[C@H](Cc2c[nH]c3ccccc23)NC1=O` [Compound 23] (Ac-FCIWQDWGEHRCT-NH2; disulfide 2-12), the IC50 under setting [1] was less than 100 nM.
`CC[C@H](C)[C@@H]1NC(=O)[C@@H](NC(=O)[C@H](Cc2ccccc2)NC(=O)[C@H](CCC(=O)O)NC(=O)[C@H](CO)NC(C)=O)CSSC[C@@H](C(=O)N(C)CC(=O)N[C@@H](CCC(=O)O)C(=O)NCC(=O)N[C@@H](CCC(=O)O)C(=O)NCCOCCOCC(=O)N[C@@H](CCCCNC(=O)CC[C@H](NC(=O)CNC(=O)CC[C@H](NC(=O)CCCCCCCCCCCCCCCCC(=O)O)C(=O)O)C(=O)O)C(N)=O)NC(=O)[C@H](CCCNC(=N)N)NC(=O)[C@H](Cc2c[nH]cn2)NC(=O)[C@H](CCC(=O)O)NC(=O)CNC(=O)[C@H](Cc2c[nH]c3ccccc23)NC(=O)[C@H](CC(=O)O)NC(=O)[C@H](CCC(N)=O)NC(=O)[C@H](Cc2cn(C)c3ccccc23)NC1=O` [Compound 138] (Ac-SEFCI[Trp(1-Me)]QDWGEHRC[Sar]EGE[AEEA]K([γGlu-Gly-γGlu-C18 diacid])-NH2; disulfide 4-14): the IC50 under setting [1] is less than 100 nM.
With `CC[C@H](C)[C@H](NC(C)=O)C(=O)N[C@H]1CSSC[C@@H](C(=O)N[C@H](C(=O)N[C@@H](CCC(=O)O)C(=O)NCC(=O)N[C@@H](CCCCNC(=O)COCCOCCNC(=O)COCCOCCNC(=O)CC[C@H](NC(=O)CCCCCCCCCCCCCCCCC(=O)O)C(=O)O)C(N)=O)[C@@H](C)O)NC(=O)[C@H](CCCNC(=N)N)NC(=O)[C@H](Cc2c[nH]cn2)NC(=O)[C@H](CCC(=O)O)NC(=O)CNC(=O)[C@H](Cc2c[nH]c3ccccc23)NC(=O)[C@H](CC(=O)O)NC(=O)[C@H](CCC(N)=O)NC(=O)[C@H](Cc2c[nH]c3ccccc23)NC(=O)[C@H]([C@@H](C)CC)NC1=O` [Compound 96] (Ac-ICIWQDWGEHRCTEGK([AEEA-AEEA-γGlu-C18 diacid])-NH2; disulfide 2-12), the IC50 under setting [1] is less than 1000 nM.
Turning to `CC[C@H](C)[C@H](NC(C)=O)C(=O)N[C@H]1CSSC[C@@H](C(=O)N[C@H](C(=O)NCC(=O)N[C@@H](C)C(=O)N[C@@H](CCC(=O)O)C(=O)N[C@@H](CO)C(N)=O)[C@@H](C)O)NC(=O)[C@H](CCCNC(=N)N)NC(=O)[C@H](Cc2c[nH]cn2)NC(=O)[C@H](C)NC(=O)CNC(=O)[C@H](Cc2c[nH]c3ccccc23)NC(=O)[C@H](CC(=O)O)NC(=O)[C@H](CCC(N)=O)NC(=O)[C@H](Cc2c[nH]c3ccccc23)NC(=O)[C@H]([C@@H](C)CC)NC1=O` [Compound 47] (Ac-ICIWQDWGAHRCTGAES-NH2; disulfide 2-12), the IC50 under setting [1] is less than 100 nM.
Turning to `CC[C@H](C)[C@@H]1NC(=O)[C@@H](NC(=O)[C@H](Cc2ccccc2)NC(=O)[C@H](CCC(=O)O)NC(=O)[C@H](CO)NC(C)=O)CSSC[C@@H](C(=O)N(C)CC(=O)N[C@@H](CCC(=O)O)C(=O)N[C@@H](C)C(N)=O)NC(=O)[C@H](CCCNC(=N)N)NC(=O)[C@H](Cc2c[nH]cn2)NC(=O)[C@H](CCC(=O)O)NC(=O)CNC(=O)[C@H](Cc2c[nH]c3ccccc23)NC(=O)[C@H](CCC(=O)O)NC(=O)[C@H](CCC(N)=O)NC(=O)[C@H](Cc2cn(C)c3ccccc23)NC1=O` [Compound 83] (Ac-SEFCI[Trp(1-Me)]QEWGEHRC[Sar]EA-NH2; disulfide 4-14), under setting [1], the IC50 was less than 100 nM.
As for `CC[C@H](C)[C@H](NC(C)=O)C(=O)N[C@H]1CSSC[C@@H](C(=O)N[C@H](C(=O)N[C@@H](CCC(=O)O)C(=O)NCC(=O)N[C@@H](CCCCNC(=O)CC[C@H](NC(=O)CCCCCCCCCCCCCCC(=O)O)C(=O)O)C(N)=O)[C@@H](C)O)NC(=O)[C@H](CCCNC(=N)N)NC(=O)[C@H](Cc2c[nH]cn2)NC(=O)[C@H](CCC(=O)O)NC(=O)CNC(=O)[C@H](Cc2c[nH]c3ccccc23)NC(=O)[C@H](CC(=O)O)NC(=O)[C@H](CCC(N)=O)NC(=O)[C@H](Cc2c[nH]c3ccccc23)NC(=O)[C@H]([C@@H](C)CC)NC1=O` [Compound 92] (Ac-ICIWQDWGEHRCTEGK([γGlu-C16 diacid])-NH2; disulfide 2-12), under setting [1], the IC50 is less than 1000 nM.
Regarding `CC[C@H](C)[C@@H]1NC(=O)[C@@H](NC(=O)[C@H](Cc2ccccc2)NC(=O)[C@H](CCC(=O)O)NC(=O)CNC(C)=O)CSSC[C@@H](C(=O)N(C)CC(=O)N[C@@H](CCC(=O)O)C(=O)N[C@@H](C)C(N)=O)NC(=O)[C@H](CCCNC(=N)N)NC(=O)[C@H](Cc2c[nH]cn2)NC(=O)[C@H](CCC(=O)O)NC(=O)CNC(=O)[C@H](Cc2c[nH]c3ccccc23)NC(=O)[C@H](CC(=O)O)NC(=O)[C@H](CCC(N)=O)NC(=O)[C@H](Cc2cn(C)c3ccccc23)NC1=O` [Compound 87] (Ac-GEFCI[Trp(1-Me)]QDWGEHRC[Sar]EA-NH2; disulfide 4-14), the IC50 under setting [1] was less than 100 nM.
Take `CC[C@H](C)[C@H](NC(C)=O)C(=O)N[C@H]1CSSC[C@@H](C(=O)N[C@H](C(N)=O)[C@@H](C)O)NC(=O)[C@H](CO)NC(=O)[C@H](Cc2c[nH]cn2)NC(=O)[C@H](C)NC(=O)CNC(=O)[C@H](Cc2c[nH]c3ccccc23)NC(=O)[C@H](CC(=O)O)NC(=O)[C@H](CCC(N)=O)NC(=O)[C@H](Cc2c[nH]c3ccccc23)NC(=O)[C@H](C(C)C)NC1=O` [E, reference compound] (Ac-ICVWQDWGAHSCT-NH2; disulfide 2-12): the IC50 under setting [2] was more than 1000 nM.
